System: NMuMG cells
Test: Apoptosis assay (FITC Annexin V/PI) after ultraviolet irradiation
Assay type: cell-based, mouse
Settings: 2 h pretreatment, ultraviolet 30 mJ/cm^2, 24 hours, mean ± SEM
Protocol: Four groups of NMuMG cells (i.e., a normal control group referred to as Normal Control Group 1-A, an ultraviolet control group referred to as UV Control Group 1-A, and two experimental groups referred to as Experimental Groups 1-A to 2-A) and four groups of HaCaT cells (i.e., a normal control group referred to as Normal Control Group 1-B, an ultraviolet control group referred to as UV Control Group 1-B, and two experimental groups referred to as Experimental Groups 1-B to 2-B), were prepared based on the procedure set forth in “Source and cultivation of cell lines” of “Experimental materials”. The cells in each group were cultivated using 5 mL of a corresponding medium shown in Table 1 and a 6-cm Petri dish in an incubator (37° C., 5% CO2) for 24 hours. […]
Subsequently, the stained cells were analyzed using BD Accuri™ C6 flow cytometry, in which cells that could be stained with FITC Annexin V but not with PI (i.e., FITC Annexin V positive and PI negative) represented cells that were induced with early apoptosis; cells stained with both FITC Annexin V and PI (i.e., FITC Annexin V positive and PI positive) represented cells that were induced with late apoptosis; and cells that could not be stained with FITC Annexin V and PI (i.e., FITC Annexin V negative and PI negative) represented viable cells. […]

## COc1cc(-c2oc3cc(O)cc(O)c3c(=O)c2O[C@@H]2O[C@H](CO)[C@@H](O)[C@H](O)[C@H]2O)ccc1O [isorhamnetin-3-O-β-D-glucoside]
15 μM
  Apoptosis percentage: 10.6 ± 2.8%
30 μM
  Apoptosis percentage: 10.5 ± 2.5 %

From patent US9821002B2, “Method for alleviating radiation injury with isorhamnetin-3-O-β-D-glucoside” (Sinotai Oncology Associate., Ltd., priority 2015, dated 2017)
